Results reported in patent US20240368157A1, “FORMS AND COMPOSITIONS OF A JAK2 INHIBITOR” (Ajax Therapeutics, Inc., priority 2023, published 2024).

What was measured:
JAK3 = biological target: T1, JAK3 (Homo sapiens, UniProt P52333); experiment: JAK Family Selectivity Assay (JAK3 vs JAK2 binding affinity); settings: selectivity over JAK2
T1 construct: made in house; host or cells: E. coli (BL21-derived, T7 phage display) or HEK-293
T1 sequence (P52333 1-1124): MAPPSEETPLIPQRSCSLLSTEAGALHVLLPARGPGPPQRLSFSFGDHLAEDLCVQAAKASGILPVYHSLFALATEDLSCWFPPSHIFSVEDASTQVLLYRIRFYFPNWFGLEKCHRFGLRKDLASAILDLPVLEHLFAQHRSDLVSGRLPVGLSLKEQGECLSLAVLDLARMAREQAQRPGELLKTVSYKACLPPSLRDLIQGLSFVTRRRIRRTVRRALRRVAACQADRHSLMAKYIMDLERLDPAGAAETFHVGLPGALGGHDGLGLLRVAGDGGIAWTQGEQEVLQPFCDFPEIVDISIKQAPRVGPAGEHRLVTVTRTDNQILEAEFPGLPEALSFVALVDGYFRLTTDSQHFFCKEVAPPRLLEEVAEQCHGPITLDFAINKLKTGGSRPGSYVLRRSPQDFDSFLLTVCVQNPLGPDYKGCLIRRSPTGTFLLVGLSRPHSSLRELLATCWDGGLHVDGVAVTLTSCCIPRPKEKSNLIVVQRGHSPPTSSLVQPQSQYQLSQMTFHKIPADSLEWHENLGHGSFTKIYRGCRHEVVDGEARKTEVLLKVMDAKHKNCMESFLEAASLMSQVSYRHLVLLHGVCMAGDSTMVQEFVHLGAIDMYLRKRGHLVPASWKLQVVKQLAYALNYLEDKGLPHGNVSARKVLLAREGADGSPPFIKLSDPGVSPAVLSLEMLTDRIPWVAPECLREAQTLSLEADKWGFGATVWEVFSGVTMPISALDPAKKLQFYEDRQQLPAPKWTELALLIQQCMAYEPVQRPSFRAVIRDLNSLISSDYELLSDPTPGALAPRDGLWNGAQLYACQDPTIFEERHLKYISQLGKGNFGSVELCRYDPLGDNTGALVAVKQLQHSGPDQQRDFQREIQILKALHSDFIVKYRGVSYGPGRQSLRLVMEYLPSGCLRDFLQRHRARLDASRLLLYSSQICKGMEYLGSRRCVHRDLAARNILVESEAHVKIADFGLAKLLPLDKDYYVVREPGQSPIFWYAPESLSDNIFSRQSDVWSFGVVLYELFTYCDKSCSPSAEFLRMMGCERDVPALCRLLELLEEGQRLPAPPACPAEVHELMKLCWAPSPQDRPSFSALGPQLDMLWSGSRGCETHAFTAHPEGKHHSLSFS
Method: Provided compounds are evaluated for selectivity by comparing their JAK2 binding affinity (Kd) in the above JAK2 Binding Assay with their binding affinity (Kd) for one or more other kinases. Binding affinity for other kinases is determined as follows: Kinase-tagged T7 phage strains are prepared in an E. coli host derived from the BL21 strain. E. coli are grown to log-phase and infected with T7 phage and incubated with shaking at 32° C. until lysis. The lysates are centrifuged and filtered to remove cell debris. The remaining kinases are produced in HEK-293 cells and subsequently tagged with DNA for qPCR detection. Streptavidin-coated magnetic beads are treated with biotinylated small molecule ligands for 30 minutes at room temperature to generate affinity resins for kinase assays. The liganded beads are blocked with excess biotin and washed with blocking buffer (SeaBlock (Pierce), 1% BSA, 0.05% Tween 20, 1 mM DTT) to remove unbound ligand and to reduce non-specific binding. Binding reactions are assembled by combining kinases, liganded affinity beads, and test compounds in 1× binding buffer (20% SeaBlock, 0.17×PBS, 0.05% Tween 20, 6 mM DTT). Test compounds are prepared as 111× stocks in 100% DMSO. Kds are determined using an 11-point 3-fold compound dilution series with three DMSO control points. […] The kinase concentration in the eluates is measured by qPCR. […]

[1] = biological target: T2, JAK2 (JH1domain-catalytic, Y1007F, Y1008F) kinase (Homo sapiens, UniProt O60674, Y1007F/Y1008F); experiment: JAK2 Binding Assay
T2 construct: JAK2 (JH1domain-catalytic, Y1007F, Y1008F) kinase was expressed as N-terminal fusion; made in house; host or cells: transiently transfected HEK293 cells
T2 sequence (O60674 849-1124 Y1007F/Y1008F limits assumed): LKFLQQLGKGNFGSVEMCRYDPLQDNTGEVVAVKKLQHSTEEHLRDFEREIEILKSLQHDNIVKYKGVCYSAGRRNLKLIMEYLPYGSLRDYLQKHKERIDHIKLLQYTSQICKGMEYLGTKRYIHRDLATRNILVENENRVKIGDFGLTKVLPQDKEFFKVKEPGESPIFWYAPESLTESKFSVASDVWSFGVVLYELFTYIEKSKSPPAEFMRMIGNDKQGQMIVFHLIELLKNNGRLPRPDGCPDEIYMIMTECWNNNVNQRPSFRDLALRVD
Method: JAK2 (JH1domain-catalytic, Y1007F, Y1008F) kinase was expressed as N-terminal fusion to the DNA binding domain of NFkB in transiently transfected HEK293 cells and subsequently tagged with DNA for qPCR detection. Streptavidin-coated magnetic beads were treated with biotinylated small molecule ligands for 30 minutes at room temperature to generate affinity resins for kinase assays. The liganded beads were blocked with excess biotin and washed with blocking buffer (SeaBlock (Pierce), 1% BSA, 0.05% Tween 20, 1 mmol/L DTT) to remove unbound ligand and to reduce nonspecific phage binding. Binding reactions were assembled by combining kinases, liganded affinity beads, and test compounds in 1× binding buffer (1×PBS, 0.05% Tween 20, 0.1% BSA, 1 mmol/L DTT). Test compound was prepared as 111× stocks in 100% DMSO and directly diluted into the assay wells. All reactions were performed in polypropylene 384-well plates in a final volume of 0.02 mL. The assay plates were incubated at room temperature with shaking for 1 hour and the affinity beads were washed with wash buffer (1×PBS, 0.05% Tween 20). The beads were then re-suspended in elution buffer (1×PBS, 0.05% Tween 20, 0.5 μmol/L non-biotinylated affinity ligand) and incubated at room temperature with shaking for 30 minutes. The kinase concentration in the eluate was measured by qPCR.

[2] = Interconversion slurry experiments; settings: slurry EtOH:H2O (90:10), 65° C.; material with small peak at ˜8.0 °2θ
Method: Mixtures of Form H and Form I with Form B were utilized in these interconversion slurry experiments. […] The interconversion slurries were performed at ambient and elevated (65° C.) temperatures in various solvents and solvent mixtures.

Row | SMILES | JAK3/JAK2 Kd/Kd ratio (JAK3) | Kd [1] | degradation by HPLC analysis [2]
1 | CN(C)C(=O)Nc1cc(Oc2cnc3nc(Nc4cc(C(F)(F)F)cn(C)c4=O)n(C)c3c2C#N)ccn1 [Compound 1, 3-(4-((7-cyano-1-methyl-2-((1-methyl-2-oxo-5-(trifluoromethyl)-1,2-dihydropyridin-3-yl)amino)-1H-imidazo[4,5-b]pyridin-6-yl)oxy)pyridin-2-yl)-1,1-dimethylurea] | A (Kd/Kd ratio≥1000) | < 10 nM | small amount of degradation
2 | CCN1CCN(Cc2ccc(Nc3nc4ccc(Oc5ccnc(NC(C)=O)c5)cc4n3C)cc2C(F)(F)F)CC1 [Compound R-1, reference compound] | A (Kd/Kd ratio≥1000) | – | –
